Data as given in article PMC4177882, “Inactivation and Unfolding of Protein Tyrosine Phosphatase from Thermus thermophilus HB27 during Urea and Guanidine Hydrochloride Denaturation” (PLoS ONE, 2014).
Structures can show the parent of a compound that is named as a salt.

Molecular target: T1, protein tyrosine phosphatase (PTPase) from Thermus thermophilus HB27 (Thermus thermophilus, UniProt Q72JF6)
T1 construct: gene TT_C0816; recombinant, expressed in E. coli BL21(DE3), purified to homogeneity; low molecular weight PTPase, CX5R(S/T) P-loop with Cys11; monomer in solution
Assay: phosphatase activity, absorbance at […] nm
Assay type: biochemical

T1 sequence (Q72JF6 entry or part of it): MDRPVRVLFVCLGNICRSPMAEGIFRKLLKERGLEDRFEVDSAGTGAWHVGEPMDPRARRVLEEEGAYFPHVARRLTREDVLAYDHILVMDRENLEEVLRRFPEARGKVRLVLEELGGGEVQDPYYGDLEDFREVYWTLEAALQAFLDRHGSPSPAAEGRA

## N=C(N)N [guanidine hydrochloride]
  Ki: 270 µM
